From patent US10036018B2, “Compositions and methods for treating cachexia” (priority 2014, dated 2018)

What was measured:
C2C12 myoblasts = assay: Trypan blue cell death of C2C12 cells treated with cytokines; format: cell-based, murine; details: C2C12, 24 h, cytokines at 5 ng/mL
Protocol: FIG. 5C is a graph depicting cell death assessed by trypan blue dye staining performed on C2C12 cells that were treated for 24 h with individual cytokines or a mixture (Cocktail) of IL-1, IL-6, TNFα, and IFNγ (all at 5 ng/mL). As a negative control, cells were treated with serum-free medium.
Trypan Blue Staining. Trypan blue dye was purchased from Gibco (15250-061), and staining was performed following the manufacturer's protocol. Dead cells are blue in color under the microscope and were counted using a hemocytometer.

phospho-p38 = assay: Western blot of treated C2C12 extracts, phospho-p38; format: cell-based, murine; details: proliferating myoblasts, Western blot time course
Protocol: (§1) FIG. 9B is an image of a Western blot on extracts of C2C12 cells that had been treated with either LLC-derived MVs (Upper) or synthetic miR-21 (Lower, using miR-16 as control), which were probed with antibodies against phospho-JNK, phospho-c-jun, and phospho-p38 at different times, as indicated.
(§2) Western Blot. Western blots were performed as previously described (2). Antibodies used and their dilutions are listed: p-JNK (Cell Signaling Technology, 1:2,000), p-c-Jun (Cell Signaling Technology, 1:1,000), p-p38 (Cell Signaling Technology, 1:2,000), and vinculin (Abeam, 1:3,000).

[1] = test system: TLR7−/− primary myoblasts; assay: Cell viability (cell counter) of TLR7-/- primary myoblasts treated with Dotap formulations of miRNAs; format: cell-based, mice; details: Dotap formulation, 24 h
Protocol: (§3) FIG. 4A is a graph depicting cell viability assessed with a cell counter for TLR7+/+ and TLR7−/− primary myoblasts that were treated with Dotap formulations of miR-16 and miR-21 for 24 h. As negative control, cells were incubated with Dotap alone. Experiments were performed in quadruplicate. Results are presented as average±SEM. *P≤0.05; **P≤0.01; ***P≤0.001.
(§4) MV Treatment. C2C12 immortalized myoblasts or primary myoblasts isolated from mice were treated with MVs at indicated times. Cell numbers of myoblasts were counted on a hemocytometer.
(§5) Myoblast Isolation and Culture. Primary myoblasts were isolated as previously described (2) and preplated twice, using noncoated tissue culture dishes, and then cultured either on a matrigelcoated 96-well plate for MTS assay reading at indicated times or on a matrigel-coated 12-well plate for protein and RNA analysis.
Mice. Cachexia in the LLC model were induced as previously described (2). TLR7−/− mice were obtained from Jackson Laboratory. Wild-type C57B6 male mice at the same age and weight were used as TLR7+/+ controls. All genotypes were determined by PCR, using tail DNA. All procedures used in this study complied with federal guidelines and the institutional policies of the Ohio State University Animal Care and Use Committee.

phospho-JNK = assay: Western blot of treated C2C12 extracts, phospho-JNK; format: cell-based, murine; details: proliferating myoblasts, Western blot time course
Protocol: as §1, §2

phospho-c-jun = assay: Western blot of treated C2C12 extracts, phospho-c-jun; format: cell-based, murine; details: proliferating myoblasts, Western blot time course
Protocol: as §1, §2

[2] = test system: TLR7+/+ primary myoblasts; assay: Cell viability (cell counter) of TLR7+/+ primary myoblasts treated with Dotap formulations of miRNAs; format: cell-based, mice; details: Dotap formulation, 24 h
Protocol: as §3, §4, §5

**Q.** For IFN-γ: proinflammatory cytokine, which “effect on the viability of proliferating murine C2C12 myoblasts” value (“effect on the viability” for short) (C2C12 myoblasts) is on record?
**A.** little or no effect

**Q.** IL-1β: proinflammatory cytokine was tested. Which “effect on the viability” value (C2C12 myoblasts) did it give?
**A.** little or no effect

**Q.** How did the “effect on the viability” value (C2C12 myoblasts) turn out when IL-6: proinflammatory cytokine was run?
**A.** little or no effect

**Q.** TNFα was tested. Which “effect on the viability” value (C2C12 myoblasts) did it give?
**A.** little or no effect

**Q.** With UAGCUUAUCAGACUGAUGUUGA [miR-21] as the substance, how does the p38 activity (phospho-p38) read?
**A.** no significant change

**Q.** And the “cell death on exogenous addition of miRNA” value (shortened to “cell death”) [1]?
**A.** significantly blunted

**Q.** What about the “cell death” value ([1]; listed as miR21) of the same substance?
**A.** does not completely rescue

**Q.** And the JNK activation (phospho-JNK)?
**A.** transiently induced

**Q.** What about the c-JUN activation (phospho-c-jun) of the same substance?
**A.** transiently induced

**Q.** What about the “cell death” value [2] of the same substance?
**A.** induced pronounced cell death
